{
  "source": "ChEMBL document CHEMBL5506017",
  "about": "“Brain-Permeable Immunoproteasome-Targeting Macrocyclic Peptide Epoxyketones for Alzheimer's Disease” (J Med Chem, 2024)",
  "key": {"[1]": {"experiment": "Toxicity in BALB/c mouse assessed as effect on weight loss at 40 mg/kg, iv", "format": "organism-based", "settings": "in vivo; call rule not given here"}, "[2]": {"experiment": "Cytotoxicity against human HMC3 cells assessed as reduction in cell viability incubated for 96 hrs by CellTiter 96 Aqueous One Solution Cell Proliferation Assay", "format": "toxicity, cell-based"}, "[3]": {"experiment": "Toxicity in BALB/c mouse at 100 mg/kg, iv measured for 72 hrs", "format": "organism-based", "settings": "in vivo"}, "[4]": {"experiment": "Unbound clearance in human plasma", "format": "ADME, cell-free"}, "[5]": {"experiment": "Toxicity in BALB/c mouse assessed as effect on weight loss at 100 mg/kg, po", "format": "organism-based", "settings": "in vivo"}, "[6]": {"experiment": "Tmax in BALB/c mouse at 40 mg/kg, iv measured upto 1440 mins by LC-MS/MS analysis", "format": "ADME, organism-based", "settings": "in vivo, 24 h"}, "[7]": {"experiment": "Mutagenicity in Salmonella typhimurium TA100 at 0.01 to 100 uM incubated for 90 mins in absence of liver S9 fraction by AMES test", "format": "toxicity", "settings": "salmonella enterica subsp. enterica serovar typhimurium, s9, 1.5 h, dose 0.01-100 µM"}, "[8]": {"experiment": "Oral bioavailability in BALB/c mouse at 150 mg/kg measured after 15 to 360 mins by LC-MS/MS analysis", "format": "ADME, organism-based", "settings": "in vivo, time 15-360 min"}, "[9]": {"experiment": "Metabolic stability in human liver microsomes assessed as parent compound remaining at 2 uM measured at 60 mins by LC-MS/MS analysis", "format": "ADME, Microsome", "settings": "1 h"}, "[10]": {"experiment": "Half life in BALB/c mouse at 40 mg/kg, iv measured upto 1440 mins by LC-MS/MS analysis", "format": "ADME, organism-based", "settings": "in vivo, 24 h"}, "HMC3": {"test_system": "HMC3", "experiment": "Cytotoxicity against human HMC3 cells assessed as reduction in cell viability at 30 to 100 uM incubated for 96 hrs by CellTiter 96 Aqueous One Solution Cell Proliferation Assay", "format": "toxicity, cell-based", "settings": "hmc3, 96 h, dose 30-100 µM"}, "[11]": {"experiment": "Tmax in BALB/c mouse plasma at 40 mg/kg, iv measured upto 1440 mins by LC-MS/MS analysis", "format": "ADME, organism-based"}, "[12]": {"target": "T1, Proteasome subunit beta type-9 (Homo sapiens, UniProt P28065)", "T1 sequence (P28065 whole entry)": "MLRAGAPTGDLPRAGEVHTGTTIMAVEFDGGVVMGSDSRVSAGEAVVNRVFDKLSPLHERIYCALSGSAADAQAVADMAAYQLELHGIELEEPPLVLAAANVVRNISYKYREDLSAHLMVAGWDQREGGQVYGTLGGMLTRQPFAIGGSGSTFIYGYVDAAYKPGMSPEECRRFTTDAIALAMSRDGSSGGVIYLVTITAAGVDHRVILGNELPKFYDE", "experiment": "Inhibition of human LMP2 using Ac-PAL-AMC as substrate incubated for 1 hr by fluorescence based SpectraMax M5e plate reader"}, "[13]": {"experiment": "Toxicity in BALB/c mouse assessed as effect on hair loss at 40 mg/kg, iv", "format": "organism-based", "settings": "in vivo"}, "[14]": {"experiment": "C0 in BALB/c mouse at 40 mg/kg, iv measured upto 1440 mins by LC-MS/MS analysis", "format": "ADME, organism-based", "settings": "in vivo, 24 h"}, "[15]": {"experiment": "Apparent permeability of the compound across apical to basolateral side in human Caco-2 cells expressing Pgp/BCRP at 10 uM incubated for 120 mins by LC-MS/MS analysis", "format": "ADME, cell-based", "settings": "caco-2, 2 h"}, "[16]": {"experiment": "AUC (0 to last) in BALB/c mouse at 40 mg/kg, iv measured upto 1440 mins by LC-MS/MS analysis", "format": "ADME, organism-based", "settings": "in vivo, 24 h"}, "[17]": {"experiment": "Drug uptake in BALB/c mouse lung at 40 mg/kg, iv measured after 2 hrs", "format": "ADME, organism-based", "settings": "in vivo"}, "[18]": {"experiment": "Mutagenicity in Salmonella typhimurium TA98 at 0.01 to 100 uM incubated for 90 mins in presence of liver S9 fraction by AMES test", "format": "toxicity, subcellular", "settings": "salmonella enterica subsp. enterica serovar typhimurium, s9, 1.5 h, dose 0.01-100 µM"}, "[19]": {"experiment": "Toxicity in BALB/c mouse assessed as diarrhea at 40 mg/kg, iv", "format": "organism-based", "settings": "in vivo"}, "[20]": {"experiment": "AUC infinity in BALB/c mouse at 150 mg/kg, po measured after 15 to 360 mins by LC-MS/MS analysis", "format": "ADME, organism-based", "settings": "in vivo, time 15-360 min"}, "[21]": {"experiment": "In vivo inhibition of LMP2 activity in BALB/c mouse brain at 100 mg/kg, iv measured after 24 hrs relative to control", "format": "functional"}, "[22]": {"experiment": "Toxicity in BALB/c mouse assessed as effect on hair loss at 100 mg/kg, po", "format": "organism-based", "settings": "in vivo"}, "[23]": {"experiment": "Toxicity in BALB/c mouse assessed as diarrhea at 100 mg/kg, po", "format": "organism-based", "settings": "in vivo"}, "[24]": {"experiment": "Efflux ratio of apparent permeability across basolateral to apical side over apical to basolateral side in human Caco-2 cells expressing Pgp/BCRP at 10 uM incubated for 120 mins by LC-MS/MS analysis", "format": "ADME, cell-based", "settings": "caco-2, 2 h"}, "[25]": {"experiment": "Metabolic stability in human liver microsomes assessed as half life at 2 uM measured upto 60 mins by LC-MS/MS analysis", "format": "ADME, Microsome", "settings": "1 h"}, "[26]": {"experiment": "In vivo inhibition of LMP2 activity in BALB/c mouse brain at 40 mg/kg, iv measured after 24 hrs relative to control", "format": "functional"}, "[27]": {"experiment": "Tmax in BALB/c mouse at 150 mg/kg, po measured after 15 to 360 mins by LC-MS/MS analysis", "format": "ADME, organism-based", "settings": "in vivo, time 15-360 min"}, "[28]": {"experiment": "Drug uptake in BALB/c mouse liver at 40 mg/kg, iv measured after 2 hrs", "format": "ADME, organism-based", "settings": "in vivo"}, "[29]": {"experiment": "Mutagenicity in Salmonella typhimurium TA98 at 0.01 to 100 uM incubated for 90 mins in absence of liver S9 fraction by AMES test", "format": "toxicity", "settings": "salmonella enterica subsp. enterica serovar typhimurium, s9, 1.5 h, dose 0.01-100 µM"}, "[30]": {"experiment": "Cmax in BALB/c mouse at 40 mg/kg, iv measured upto 1440 mins by LC-MS/MS analysis", "format": "ADME, organism-based", "settings": "in vivo, 24 h"}, "[31]": {"experiment": "Drug uptake in BALB/c mouse kidney at 40 mg/kg, iv measured after 2 hrs", "format": "ADME, organism-based", "settings": "in vivo"}, "[32]": {"experiment": "Toxicity in BALB/c mouse assessed as paralysis at 100 mg/kg, po", "format": "organism-based", "settings": "in vivo"}, "[33]": {"experiment": "Protein binding in human plasma assessed as unbound fraction", "format": "ADME, cell-free"}, "[34]": {"experiment": "In vivo inhibition of LMP2 activity in BALB/c mouse brain at 40 mg/kg, iv measured after 2 hrs relative to control", "format": "functional"}, "[35]": {"experiment": "In vivo inhibition of LMP2 activity in BALB/c mouse blood at 40 mg/kg, iv measured after 2 hrs relative to control", "format": "functional"}, "[36]": {"experiment": "Drug uptake in BALB/c mouse brain at 40 mg/kg, iv measured after 2 hrs", "format": "ADME, organism-based", "settings": "in vivo"}, "[37]": {"experiment": "Cmax in BALB/c mouse at 150 mg/kg, po measured after 15 to 360 mins by LC-MS/MS analysis", "format": "ADME, organism-based", "settings": "in vivo, time 15-360 min"}, "ARPE-19": {"test_system": "ARPE-19", "experiment": "Cytotoxicity against human ARPE-19 cells assessed as reduction in cell viability at 30 to 100 uM incubated for 96 hrs by CellTiter 96 Aqueous One Solution Cell Proliferation Assay", "format": "toxicity, cell-based", "settings": "arpe-19, 96 h, dose 30-100 µM"}, "[38]": {"experiment": "Clearance in BALB/c mouse at 40 mg/kg, iv measured upto 1440 mins by LC-MS/MS analysis", "format": "ADME, organism-based", "settings": "in vivo, 24 h"}, "[39]": {"experiment": "Apparent permeability of the compound across basal to apical side in human Caco-2 cells expressing Pgp/BCRP at 10 uM incubated for 120 mins by LC-MS/MS analysis", "format": "ADME, cell-based", "settings": "caco-2, 2 h"}},
  "data": [
    {"smiles": "CC(C)C[C@H](NC(=O)[C@@H]1COCCCCCC(=O)N2C[C@H](F)C[C@H]2C(=O)N1)C(=O)[C@@]1(C)CO1", "values": [
      {"measurement": "Activity", "setting": "[1]", "value": "Non-Toxic"},
      {"measurement": "IC50 at 96 h", "setting": "[2]", "value": "> 100", "unit": "µM"},
      {"measurement": "Activity", "setting": "[3]", "value": "Non-Toxic"},
      {"measurement": "CL free", "setting": "[4]", "value": 72, "unit": "mL/min/kg"},
      {"measurement": "Activity", "setting": "[5]", "value": "Non-Toxic"},
      {"measurement": "Tmax", "setting": "[6]", "value": 4.98, "unit": "min"},
      {"measurement": "Activity", "setting": "[7]", "value": "Non-Toxic"},
      {"measurement": "F", "setting": "[8]", "value": 9.8, "unit": "%"},
      {"measurement": "Stability", "setting": "[9]", "value": 33, "unit": "%"},
      {"measurement": "t1/2", "setting": "[10]", "value": 25.2, "unit": "min"},
      {"measurement": "Activity", "setting": "HMC3", "value": "Non-Toxic"},
      {"measurement": "Tmax", "setting": "[11]", "value": 15, "unit": "min"},
      {"measurement": "IC50", "setting": "[12]", "value": 0.087, "unit": "µM"},
      {"measurement": "Activity", "setting": "[13]", "value": "Non-Toxic"},
      {"measurement": "C0", "setting": "[14]", "value": 31987, "unit": "ng/mL"},
      {"measurement": "Papp", "setting": "[15]", "value": "6.62 10^-6 cm/s"},
      {"measurement": "AUClast", "setting": "[16]", "value": 9689, "unit": "ng·h/mL"},
      {"measurement": "Drug uptake", "setting": "[17]", "value": "Not Active"},
      {"measurement": "Activity", "setting": "[18]", "value": "Non-Toxic"},
      {"measurement": "Activity", "setting": "[19]", "value": "Non-Toxic"},
      {"measurement": "AUC", "setting": "[20]", "value": 3571, "unit": "ng·h/mL"},
      {"measurement": "inhibition in vivo at 100 mg/kg", "setting": "[21]", "value": 65, "unit": "%"},
      {"measurement": "Activity", "setting": "[22]", "value": "Non-Toxic"},
      {"measurement": "Activity", "setting": "[23]", "value": "Non-Toxic"},
      {"measurement": "Ratio", "setting": "[24]", "value": 2.62},
      {"measurement": "t1/2", "setting": "[25]", "value": 38.4, "unit": "min"},
      {"measurement": "inhibition in vivo at 40 mg/kg", "setting": "[26]", "value": 39, "unit": "%"},
      {"measurement": "Tmax", "setting": "[27]", "value": 20, "unit": "min"},
      {"measurement": "Drug uptake", "setting": "[28]", "value": "Active"},
      {"measurement": "Activity", "setting": "[29]", "value": "Non-Toxic"},
      {"measurement": "Cmax", "setting": "[30]", "value": 25900, "unit": "ng/mL"},
      {"measurement": "Drug uptake", "setting": "[31]", "value": "Active"},
      {"measurement": "Activity", "setting": "[32]", "value": "Non-Toxic"},
      {"measurement": "Fu", "setting": "[33]", "value": 0.45, "unit": "%"},
      {"measurement": "inhibition in vivo at 40 mg/kg", "setting": "[34]", "value": 56, "unit": "%"},
      {"measurement": "inhibition in vivo at 40 mg/kg", "setting": "[35]", "value": 100, "unit": "%"},
      {"measurement": "Drug uptake", "setting": "[36]", "value": "Active"},
      {"measurement": "Cmax", "setting": "[37]", "value": 3630, "unit": "ng/mL"},
      {"measurement": "Activity", "setting": "ARPE-19", "value": "Non-Toxic"},
      {"measurement": "CL", "setting": "[38]", "value": 70.88, "unit": "mL/min/kg"},
      {"measurement": "Papp", "setting": "[39]", "value": "17.3 10^-6 cm/s"}
    ]}
  ]
}
